Data: patent US20060104981A1, “Prophylactic/therapeutic agent for cancer” (priority 2002, published 2006)

Key:
Format in all cases: cell-based
[1] = tested on: EZH2 (RNA) in colon cell line HCT116; experiment: EZH2 (RNA) expression by quantitative PCR after siRNA transfection; conditions: 36 hours after transfection, siRNA 45 nM
Description: (§1) RNA Duplexes for the base sequence represented by SEQ ID NO: 3 (hereinafter briefly referred to as siRNA) were designed (SEQ ID NO: 11 and SEQ ID NO: 12) and provided for the transfection experiment using the synthetic duplexes (Qiagen, Inc.). For control siRNAs, commercially available Control (non-silencing) siRNAs (SEQ ID NO: 13 and SEQ ID NO: 14) (manufactured by Qiagen, Inc.) were used.
(§2) Colon cell line HCT116 (purchased from ATCC) and lung cancer cell line NCI-H1299 (purchased from ATCC) were used as the test cells used for the following test. Forty-eight hours before transfection of siRNAs, 5×10^5 cells were plated on a 24-well plate (manufactured by Falcon Co., Ltd.). In transfection of these siRNAs, Lipofectamine 2000 (manufactured by Invitrogen Corp.) was used in accordance with its protocol. The final concentration of siRNAs was set at 45 nM. RNA was extracted 36 hours after the transfection, following the protocol of RNeasy Mini Kit (manufactured by Qiagen, Inc.) and cDNA was prepared using TaqMan Reverse Transcription Reagents (manufactured by Applied Biosystems, Inc.). Quantitative PCR was performed on ABI PRISM™ 7900HT Sequence Detector (manufactured by Applied Biosystems, Inc.), using two primers (SEQ ID NO: 6 and SEQ ID NO: 7) and a probe (SEQ ID NO: 8), as in EXAMPLE 4.

[2] = tested on: EZH2 (RNA) in lung cancer cell line NCI-H1299; experiment: as above; conditions: 36 hours after transfection, siRNA 45 nM
Description: as §1, §2

[3] = tested on: lung cancer cell line NCI-H1299; experiment: Apoptosis (caspase 3/7 activity, Caspase Glo-3/7 assay) after siRNA transfection; conditions: day 3 after transfection
Description: as §1
(§3) Meanwhile, 1×10^3 cells were seeded on a 96-well plate (manufactured by Falcon Co., Ltd.) to assess the effect on apoptosis. Forty-eight hours later, siRNA or control siRNA to EZH2 was transfected using Lipofectamine 2000 (manufactured by Invitrogen Corp.) as described above. On day 3 after the siRNA transfection, the caspase 3/7 activity as an indicator of apoptosis was compared by the Caspase Glo-3/7 assay (manufactured by Promega Corp.).

colon cell line HCT116 = experiment: as above; conditions: day 3 after transfection
Description: as §1, §3

## siRNA to EZH2: RNA duplexes for the base sequence of SEQ ID NO: 3; antisense strand SEQ ID NO: 11, sense strand SEQ ID NO: 12 (antisense AAGUUGAACAGAAAGCUGCTT; sense GCAGCUUUCUGUUCAACUUTT; RNA duplexes, chemistry of the tt overhangs not given here)
[1]
  expression of EZH2 (RNA) as compared to control siRNA (100%): 50%
[2]
  expression of EZH2 (RNA) as compared to control siRNA (100%): 13%
[3]
  apoptosis as compared to the control (100%): 143%
Colon cell line HCT116
  apoptosis as compared to the control (100%): 185%
